Source: article PMC6010128, “Structure–activity relationship investigation of tertiary amine derivatives of cinnamic acid as acetylcholinesterase and butyrylcholinesterase inhibitors: compared with that of phenylpropionic acid, sorbic acid and hexanoic acid” (Journal of Enzyme Inhibition and Medicinal Chemistry, 2018)

Tests used:
[1] = target: T1, AChE (Rattus norvegicus, UniProt P37136); assay: biochemical
[2] = target: BChE (Rattus norvegicus, UniProt Q9JKC1); assay: biochemical; set-up: species or system Sprague–Dawley rat; details: rat serum BChE, Mean ± SD, triplicate
BChE, sequence (Q9JKC1 24-597): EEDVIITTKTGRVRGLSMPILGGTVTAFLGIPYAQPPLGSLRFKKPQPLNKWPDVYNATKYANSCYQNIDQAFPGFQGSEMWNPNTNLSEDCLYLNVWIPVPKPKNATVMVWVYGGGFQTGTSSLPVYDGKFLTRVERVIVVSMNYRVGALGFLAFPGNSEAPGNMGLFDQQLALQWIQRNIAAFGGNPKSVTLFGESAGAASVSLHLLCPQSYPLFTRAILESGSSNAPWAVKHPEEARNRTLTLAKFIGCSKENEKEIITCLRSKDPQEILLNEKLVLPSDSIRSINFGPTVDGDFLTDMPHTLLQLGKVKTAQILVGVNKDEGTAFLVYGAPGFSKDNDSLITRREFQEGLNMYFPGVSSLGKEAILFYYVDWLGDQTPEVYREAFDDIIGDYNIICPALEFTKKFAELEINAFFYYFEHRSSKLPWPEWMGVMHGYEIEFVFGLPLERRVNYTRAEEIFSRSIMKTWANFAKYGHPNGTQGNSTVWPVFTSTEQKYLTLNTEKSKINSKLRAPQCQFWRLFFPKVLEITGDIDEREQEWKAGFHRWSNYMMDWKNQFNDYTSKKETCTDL

[3] = target: T1, AChE; assay: Kinetic study of AChE inhibition (Lineweaver–Burk); type: biochemical
Experimental: Kinetic characterization of AChE was performed by a reported method. Compound 6g was added into the assay solution and preincubated with the enzyme at 30 °C, followed by the addition of 100 μL acetylthiocholine iodide including five concentrations. The assay solution contained 100 μL compound 6g, 100 μL DTNB, 2.79 ml 0.1 mol/l Na2HPO4/NaH2PO4 buffer (pH 7.4). Kinetic profile of the hydrolysis of acetylthiocholine iodide catalyzed by AChE was determined by the UV–Vis spectrometry at 412 nm. The parallel control experiment was carried out without compound 6g in the mixture.
Compound 6g was selected for further kinetic study since it had the strongest inhibiting activity against AChE among new synthesized compounds.
Fig. 2 Lineaweaver–Burk plot for the inhibition of AChE by compound 6g
Table 2 Kinetic parameters of AChE inhibited by compound 6g
C Michaelis-Menten Km Vmax Ki Ki’
(µmol/L) equation (mmol/L) (ΔAmin-1) (µmol//L) (µmol/L)
(1 picture or pasted object on this page, not shown here)

[4] = Log P by shake flask method; type: physicochemical; details: octanol / PBS pH = 7.4, shake flask
Experimental: Log P is defined as the logarithm of octanol–water partition coefficient. […] Ultraviolet spectrophotometry was applied to determine the concentration of compounds. Log p values were calculated based on the data in triplicate.

[5] = pKa by pH-titration method; type: physicochemical; details: read-out: pKa
Experimental: pKa is determined by pH-titration method according to the report. The titration curve E vs. VT was recorded and pKa value was calculated.

T1 sequence (P37136 32-614): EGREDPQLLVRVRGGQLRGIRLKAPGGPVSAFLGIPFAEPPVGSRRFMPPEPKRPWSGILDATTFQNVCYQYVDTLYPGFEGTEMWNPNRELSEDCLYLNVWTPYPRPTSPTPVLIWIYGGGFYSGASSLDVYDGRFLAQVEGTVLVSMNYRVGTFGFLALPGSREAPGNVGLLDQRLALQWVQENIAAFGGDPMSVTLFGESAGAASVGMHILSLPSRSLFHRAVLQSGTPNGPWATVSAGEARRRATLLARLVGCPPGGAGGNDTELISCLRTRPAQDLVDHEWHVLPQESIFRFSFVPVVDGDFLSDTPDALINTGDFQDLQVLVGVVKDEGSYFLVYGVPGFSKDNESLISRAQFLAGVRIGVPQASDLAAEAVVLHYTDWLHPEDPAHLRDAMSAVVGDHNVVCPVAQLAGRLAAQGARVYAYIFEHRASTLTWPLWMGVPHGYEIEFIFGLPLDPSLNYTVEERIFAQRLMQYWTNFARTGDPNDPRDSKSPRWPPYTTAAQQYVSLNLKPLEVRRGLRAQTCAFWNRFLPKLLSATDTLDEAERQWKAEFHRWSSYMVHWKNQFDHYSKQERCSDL

O=C(C=Cc1ccccc1)Nc1ccc(OCCN2CCCC2)cc1 [Compound 6g]
Selectivity for AChE ([1]; IC50 (BChE)/IC50 (AChE)): 28.6
IC50 ([1]; rat brain AChE, Mean ± SD, triplicate): 3.64 ± 0.28 µM
IC50 [2]: 104 ± 1.34 µM
Vmax ([3]; AChE with 0.72 µmol/L compound 6g): 0.023 ΔAmin-1
Vmax ([3]; AChE with 1.43 µmol/L compound 6g): 0.021 ΔAmin-1
Vmax ([3]; AChE with 2.86 µmol/L compound 6g): 0.019 ΔAmin-1
non-competitive constant (Ki′) ([3]; AChE, acetylthiocholine iodide substrate): 2.14 µM
Ki ([3]; AChE, acetylthiocholine iodide substrate, read-out: competitive inhibit constant (Ki)): 7.27 µM
type of inhibition against AChE ([3]; Lineweaver–Burk analysis): mixed-type inhibition
logP [4]: 1.33
pKa [5]: 6.74
